Laboratory results reported in BindingDB's records for doi:10.1021/acs.jmedchem.0c02247 (Nanjing University of Chinese Medicine, 2021).

How the values were obtained:
[1] = Inhibition of FLT3 ITD mutant (unknown origin) expressed in mouse BaF3 cells assessed as antiproliferative activity incubated for 72 hrs by CCK8 assay
[2] = Inhibition of TEL-FLT3 D835V mutant (unknown origin) expressed in mouse BaF3 cells assessed as antiproliferative activity incubated for 72 hrs by CCK8 assay
[3] = Inhibition of FLT3 ITD/D835V double mutant (unknown origin) expressed in mouse BaF3 cells assessed as antiproliferative activity incubated for 72 hrs by CCK8 assay

IC50 [1]: 0.013 µM
IC50 [2]: 0.03 µM
IC50 [3]: 0.027 µM
SMILES: Cc1c(NC(=O)CCN2CCCC2)c[nH]c1/C=C1\C(=O)Nc2ccc(F)cc21
